In patent US11932634B2 (Gilead Sciences, Inc., priority 2021, dated 2024) one finds EC50 and IC50 data, which are given here for 31 compounds.

Experiment [1] relates to Jurkat NFκB-luciferase cells. In words: Jurkat NFκB-Luciferase Assay.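 Also: bioluminescence read-out normalized to DMSO basal activation and to maximum enhancement at 1 µM compound, rising signal indicating stronger T-cell activation through DGKα inhibition.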 It is filed as cell-based. Particulars: Homo sapiens; Jurkat NFκB-luciferase cells activated with anti-CD3 antibody (OKT3), 2.5 hrs at 37° C., One-Glo Ex; geometric mean; read-out: DGK NFKb Luciferase EC50.
Experimental: The activity of compounds was tested in a cell based NFκB reporter assay. Jurkat cells that are stably expressing a luciferase reporter construct under the transcriptional control of a NFκB reporter element were activated with an anti-CD3 antibody and luciferase levels were measured with a bioluminescence readout.
The day after, the excess antibody was washed out five times with 100 ul/well of assay medium (RPMI supplemented with 10% fetal bovine serum) using a Biotek EL406 instrument and leaving 20 µl of residual volume in each well. Jurkat NFκB-luciferase cells (Promega #) were harvested and diluted to 1 million cells/ml in assay medium. Sixty nanoliters of test compound dissolved in DMSO at various concentrations were dispensed into 384-well v-bottom polypropylene plates (Greiner) using a Labcyte Echo instrument. Thirty microliters of medium containing the Jurkat NFκB-luciferase cells were then dispensed using a Biotek MicroFlo instrument in each well of the compound-containing plate. The medium/cell/compound mixture was mixed with a Bravo instrument and 20 ul/well of the mixture was transferred to the anti-CD3-coated plate. The assay mixture was then incubated for 2.5 hrs at 37° C. followed by equilibration at 25° C. for 30 min. Forty microliters of One-Glo Ex (Promega) was then added to the assay mixture and luciferase activity was read on a Envision plate reader 7 minutes later.
Bioluminescence data were normalized based on maximum enhancement (1 micromolar of compound) and on basal activation (DMSO) controls. Least squares curve fittings were performed using a four-parameter variable slope nonlinear regression model. […] EC50 values from multiple experiments were averaged by geometric mean and the standard deviation was calculated.
The next experiment concerns the target T1, human DGKα (Homo sapiens, UniProt P23743).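 Also: recombinant enzyme converting diacylglycerol in lipid micelles with ATP, ADP formed detected by luminescence, IC50 from a four-parameter nonlinear fit, geometric mean across experiments.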
T1 construct: purchased Carna Biosciences'; inferred from the same paragraph's 'obtained from Carna Biosciences')
The experiment can be described thus: DGKα Biochemical Activity Assay (ADP-Glo). (In ADP-Glo the light output rises with the ADP produced.)

SMILES strings stand for the structures.

T1 sequence (P23743 whole entry): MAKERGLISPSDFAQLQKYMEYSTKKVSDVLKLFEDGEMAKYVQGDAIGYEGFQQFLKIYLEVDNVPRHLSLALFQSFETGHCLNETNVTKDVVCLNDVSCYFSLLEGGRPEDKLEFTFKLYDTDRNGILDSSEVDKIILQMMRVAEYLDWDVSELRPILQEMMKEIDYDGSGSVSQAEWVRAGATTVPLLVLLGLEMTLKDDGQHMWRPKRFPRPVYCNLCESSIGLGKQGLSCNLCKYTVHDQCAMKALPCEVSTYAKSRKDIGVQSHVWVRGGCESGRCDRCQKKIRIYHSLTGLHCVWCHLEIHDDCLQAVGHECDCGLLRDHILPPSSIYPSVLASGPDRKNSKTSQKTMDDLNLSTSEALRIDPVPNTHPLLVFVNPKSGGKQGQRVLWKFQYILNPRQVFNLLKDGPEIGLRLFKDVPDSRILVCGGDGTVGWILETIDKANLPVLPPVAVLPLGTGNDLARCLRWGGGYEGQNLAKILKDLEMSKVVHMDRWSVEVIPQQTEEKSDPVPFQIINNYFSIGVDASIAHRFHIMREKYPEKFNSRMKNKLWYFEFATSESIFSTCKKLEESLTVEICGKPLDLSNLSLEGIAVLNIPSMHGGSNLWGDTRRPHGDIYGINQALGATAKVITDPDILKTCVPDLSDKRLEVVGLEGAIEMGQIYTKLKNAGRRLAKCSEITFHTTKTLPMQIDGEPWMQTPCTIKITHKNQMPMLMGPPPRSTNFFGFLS
Text for human DGKα: Alternatively, the enzymatic activity of human DGKα was monitored in a biochemical assay in the presence or absence of compounds and using micelles containing 18:1 Diacylglycerol (DAG), 16:0-18:1 PS (POPS) and Octylglucoside as substrate. DGKα activity led to conversion of DAG and ATP to Phosphatidic Acid (PA) and ADP. Levels of ADP were monitored by bioluminescence using the ADP-Glo Kinase Assay (Promega) and were indicative of DGKα activity.
Ten nanoliters of test compound dissolved in DMSO at various concentrations were dispensed into a 384-well low volume nonbinding service white plates (Corning #3824) using a Labcyte Echo instrument. Recombinant DGKα Biosciences) in assay buffer (5 μL in 50 mM MOPS [3-(N-morpholino) propanesulfonic acid], pH 7.2; 0.0025% Triton X-100; 1 mM dithiothreitol; 5 mM MgCl2, 200 μM ATP) was added to the compound-containing plate and was incubated for 15 minutes at 25° C. A substrate solution (5 μL in 1.7 mM 1,2-dioleoyl-sn-glycerol [18:1 DAG], 13.5 mM 1-palmitoyl-2-oleoyl-sn-glycero-3-phospho-L-serine [16:0-18:1 PS](POPS), 2 μM CaCl2), 100 mM Octylglucoside (OG), 1 mM DTT) (obtained from Carna Biosciences) diluted in DGK ALPHA assay buffer was then added to start the reaction. Final concentrations were 1 nM DGKα, 100 μM ATP, 1 μM calcium chloride, 0.85 mM 1,2-dioleoyl-sn-glycerol (18:1 DAG), 6.75 mM 1-palmitoyl-2-oleoyl-sn-glycero-3-phospho-L-serine (16:0-18:1 PS) (POPS), 1 μM CaCl2), 50 mM Octylglucoside (OG) and 5 mM MgCl2. The reaction mixture was incubated at 25° C. for 1 hour. ADP-Glo Reagent (10 μL, 10 mM Mg added) provided by the kit was added to each well and incubated at 25° C. for 40 minutes. Then, 20 μL of Kinase Detection Reagent was added and incubated at 25° C. for 40 minutes. Luciferase activity of each well was measured via luminescence on an Envision plate reader (PerkinElmer).
Least squares curve fittings were performed using a four-parameter variable slope nonlinear regression model. […] IC50 values from multiple experiments were averaged by geometric mean and the standard deviation was calculated.

Broadly, the EC50 is the concentration needed to bring the measured effect to its halfway point. In general, IC50 refers to the concentration that gives 50% inhibition. A low value points to inhibition by little substance. With `CN(c1cccc(-c2ccc(C3CC3)cc2)c1)c1nc(=O)[nH]c2cc(Cl)ccc12` [Example 1, 7-chloro-4-[3-(4-cyclopropylphenyl)-N-methyl-anilino]-1H-quinazolin-2-one], the EC50 in experiment [1] was 1.36 nM. On human DGKα, this compound yielded a half-maximal inhibitory concentration (IC50) of 166 nM. The matching figures for `CN(c1cccc(-c2ccc(C3CC3)cc2)c1)c1nc(=O)n(C)c2cc(Cl)ccc12` [Example 2, 7-chloro-4-[3-(4-cyclopropylphenyl)-N-methyl-anilino]-1-methyl-quinazolin-2-one]: 0.479 nM and 15.1 nM. The matching figures for `CN(c1cccc(C#CC(C)(C)O)c1)c1nc(=O)[nH]c2cc(Cl)ccc12` [Example 3, 7-chloro-4-[3-(3-hydroxy-3-methyl-but-1-ynyl)-N-methyl-anilino]-1H-quinazolin-2-one]: 10.7 nM and 96.3 nM. The matching figures for `CN(c1cccc(C#CC(C)(C)O)c1)c1nc(=O)n(C)c2cc(Cl)ccc12` [Example 4, 7-chloro-4-[3-(3-hydroxy-3-methyl-but-1-ynyl)-N-methyl-anilino]-1-methyl-quinazolin-2-one]: 4.56 nM and 17 nM. Consider `CN(c1cccc(C#CC2(C(F)(F)F)CC2)c1)c1nc(=O)[nH]c2cc(Cl)ccc12` [Example 5, 7-chloro-4-[N-methyl-3-[2-[1-(trifluoromethyl)cyclopropyl]ethynyl]anilino]-1H-quinazolin-2-one], for which the 50% effective concentration (EC50) in experiment [1] was found to be 1.01 nM. The IC50 against human DGKα amounted to 53.1 nM.

As for `CN(c1cccc(-c2ccc(N3CCCC3)nc2)c1)c1nc(=O)[nH]c2cc(Cl)ccc12` [Example 6, 7-chloro-4-[N-methyl-3-(6-pyrrolidin-1-yl-3-pyridyl)anilino]-1H-quinazolin-2-one], the EC50 in experiment [1] amounted to 2.24 nM. On human DGKα, this compound returned a 50% inhibitory concentration (IC50) of 84.5 nM. `CN(c1cccc(-c2ccc(N3CCCC3)nc2)c1)c1nc(=O)n(C)c2cc(Cl)ccc12` [Example 7, 7-chloro-1-methyl-4-[N-methyl-3-(6-pyrrolidin-1-yl-3-pyridyl)anilino]quinazolin-2-one]: in experiment [1], the EC50 worked out at 0.675 nM. The compound also returned an IC50 against human DGKα of 17.9 nM.

As for `CN(c1cccc(C#CC2(C(F)(F)F)CC2)c1)c1nc(=O)n(C)c2cc(Cl)ccc12` [Example 8, 7-chloro-1-methyl-4-[N-methyl-3-[2-[1-(trifluoromethyl)cyclopropyl]ethynyl]anilino]quinazolin-2-one], the EC50 in experiment [1] came out at 0.489 nM. On human DGKα, the IC50 stood at 12.4 nM.

Turning to `CN(c1cccc(-c2ccc(N3CCCS3(=O)=O)cc2)c1)c1nc(=O)[nH]c2cc(Cl)ccc12` [Example 9, 7-chloro-4-[3-[4-(1,1-dioxo-1,2-thiazolidin-2-yl)phenyl]-N-methyl-anilino]-1H-quinazolin-2-one], the EC50 in experiment [1] turned out to be 5.03 nM. This compound had an IC50 on human DGKα of 33.3 nM. The like results for `CN(c1cccc(-c2ccc(N3CCCS3(=O)=O)cc2)c1)c1nc(=O)n(C)c2cc(Cl)ccc12` [Example 10, 7-chloro-4-[3-[4-(1,1-dioxo-1,2-thiazolidin-2-yl)phenyl]-N-methyl-anilino]-1-methyl-quinazolin-2-one] were, in that order, 1.51 nM and 14 nM. For `CN(c1cccc(-c2cnc(C3CC3)cn2)c1)c1nc(=O)n(C)c2cc(Cl)ccc12` [Example 11, 7-chloro-4-[3-(5-cyclopropylpyrazin-2-yl)-N-methyl-anilino]-1-methyl-quinazolin-2-one], in experiment [1], the EC50 was 0.709 nM. For the same compound, the IC50 against human DGKα was 4.02 nM.

As to `CN(c1cncc(C#CC2(C(F)(F)F)CC2)n1)c1nc(=O)n(C)c2cc(Cl)ccc12` [Example 12, 7-chloro-1-methyl-4-[methyl-[6-[2-[1-(trifluoromethyl)cyclopropyl]ethynyl]pyrazin-2-yl]amino]quinazolin-2-one], the EC50 in experiment [1] turned out to be 1.04 nM. On human DGKα, the IC50 came to 2.91 nM.

In the case of `CN(c1cncc(C#CC2(C(F)(F)F)CC2)n1)c1nc(=O)[nH]c2cc(Cl)ccc12` [Example 13, 7-chloro-4-[methyl-[6-[2-[1-(trifluoromethyl)cyclopropyl]ethynyl]pyrazin-2-yl]amino]-1H-quinazolin-2-one], the EC50 in experiment [1] is 1.16 nM. At human DGKα, this compound registered an IC50 of 20.6 nM.

On to `CN(c1cc(F)cc(C#CC2(C(F)(F)F)CC2)c1)c1nc(=O)[nH]c2cc(Cl)ccc12` [Example 14, 7-chloro-4-[3-fluoro-N-methyl-5-[2-[1-(trifluoromethyl)cyclopropyl]ethynyl]anilino]-1H-quinazolin-2-one], for which, in experiment [1], the EC50 came to 0.788 nM. For the same compound, on human DGKα, the IC50 was found to be 138 nM. The matching figures for `[2H]C([2H])([2H])n1c(=O)nc(N(C)c2cc(F)cc(C#CC3(C(F)(F)F)CC3)c2)c2ccc(Cl)cc21` [Example 15, 7-chloro-4-[3-fluoro-N-methyl-5-[2-[1-(trifluoromethyl)cyclopropyl]ethynyl]anilino]-1-(trideuteriomethyl)quinazolin-2-one]: 0.557 nM and 27.3 nM.

With `O=c1nc(N(CC(F)F)c2cc(F)cc(C#CC3(C(F)(F)F)CC3)c2)c2c(F)cccc2[nH]1` [Example 16, 4-[N-(2,2-difluoroethyl)-3-fluoro-5-[2-[1-(trifluoromethyl)cyclopropyl]ethynyl]anilino]-5-fluoro-1H-quinazolin-2-one], the EC50 in experiment [1] is 1.19 nM. Besides, the IC50 against human DGKα is 252 nM. The matching figures for `O=c1nc(N(CC(F)F)c2cc(F)cc(-c3cnc(C4CC4)cn3)c2)c2c(F)cccc2[nH]1` [Example 17, 4-[3-(5-cyclopropylpyrazin-2-yl)-N-(2,2-difluoroethyl)-5-fluoro-anilino]-5-fluoro-1H-quinazolin-2-one]: 1.23 nM and 30.1 nM.

`O=c1nc(N(CC(F)F)c2cc(F)cc(-c3ccc(C(F)F)nc3)c2)c2c(F)cccc2[nH]1` [Example 18, 4-[N-(2,2-difluoroethyl)-3-[6-(difluoromethyl)-3-pyridyl]-5-fluoro-anilino]-5-fluoro-1H-quinazolin-2-one]: the EC50 in experiment [1] is 2.63 nM. Moreover, 54.4 nM corresponded to half-maximal inhibition against human DGKα (IC50). Consider `O=c1nc(N2CCCc3c(C#CC4(C(F)(F)F)CC4)cccc32)c2c(F)cccc2[nH]1` [Example 19, 5-fluoro-4-[5-[2-[1-(trifluoromethyl)cyclopropyl]ethynyl]-3,4-dihydro-2H-quinolin-1-yl]-1H-quinazolin-2-one], for which the EC50 in experiment [1] worked out at 0.63 nM. Also, the IC50 against human DGKα is 62.5 nM. Turning to `CCn1c(=O)nc(N2CCCc3c(C#CC4(C(F)(F)F)CC4)cccc32)c2c(F)cccc21` [Example 20, 1-ethyl-5-fluoro-4-[5-[2-[1-(trifluoromethyl)cyclopropyl]ethynyl]-3,4-dihydro-2H-quinolin-1-yl]quinazolin-2-one], the EC50 in experiment [1] was found to be 0.875 nM. Besides, the concentration for half-maximal inhibition (IC50) against human DGKα is 293 nM.

For `[2H]C([2H])([2H])n1c(=O)nc(N2CCCc3c(C#CC4(C(F)(F)F)CC4)cccc32)c2c(F)cccc21` [Example 21, 5-fluoro-1-(trideuteriomethyl)-4-[5-[2-[1-(trifluoromethyl)cyclopropyl]ethynyl]-3,4-dihydro-2H-quinolin-1-yl]quinazolin-2-one], the EC50 in experiment [1] came to 0.232 nM. The compound further displayed an IC50 against human DGKα of 11.3 nM.

Turning to `[2H]C([2H])([2H])n1c(=O)nc(N(CC(F)F)c2cc(F)cc(C#CC3(C(F)(F)F)CC3)c2)c2c(F)cccc21` [Example 22, 4-[N-(2,2-difluoroethyl)-3-fluoro-5-[2-[1-(trifluoromethyl)cyclopropyl]ethynyl]anilino]-5-fluoro-1-(trideuteriomethyl)quinazolin-2-one], in experiment [1], the EC50 was 1.61 nM. The compound further returned an IC50 against human DGKα of 55.6 nM. Take `O=c1nc(N(CC(F)(F)F)c2cccc(C#CC3(C(F)(F)F)CC3)c2)c2ccc(Cl)cc2[nH]1` [Example 24, 7-chloro-4-[N-(2,2,2-trifluoroethyl)-3-[2-[1-(trifluoromethyl)cyclopropyl]ethynyl]anilino]-1H-quinazolin-2-one]: in experiment [1], the EC50 amounted to 2.38 nM. Moreover, on human DGKα, the half-inhibitory concentration (IC50) was 176 nM. `[2H]C([2H])([2H])n1c(=O)nc(N(CC(F)(F)F)c2cccc(C#CC3(C(F)(F)F)CC3)c2)c2ccc(Cl)cc21` [Example 25, 7-chloro-1-(trideuteriomethyl)-4-[N-(2,2,2-trifluoroethyl)-3-[2-[1-(trifluoromethyl)cyclopropyl]ethynyl]anilino]quinazolin-2-one]: in experiment [1], the half-maximal effective concentration (EC50) was 0.405 nM. In addition, the IC50 against human DGKα came out at 58.8 nM.

Consider `O=c1nc(N(CC(F)F)c2cc(F)cc(C#CC3(C(F)(F)F)CC3)c2)c2ccc(Cl)cc2[nH]1` [Example 26, 7-chloro-4-[N-(2,2-difluoroethyl)-3-fluoro-5-[2-[1-(trifluoromethyl)cyclopropyl]ethynyl]anilino]-1H-quinazolin-2-one], for which the EC50 in experiment [1] is 1.07 nM. This compound returned an IC50 against human DGKα of 314 nM.

With `O=c1nc(N(CC(F)(F)F)c2cc(F)cc(C#CC3(C(F)(F)F)CC3)c2)c2cc(F)ccc2[nH]1` [Example 27, 6-fluoro-4-[3-fluoro-N-(2,2,2-trifluoroethyl)-5-[2-[1-(trifluoromethyl)cyclopropyl]ethynyl]anilino]-1H-quinazolin-2-one], the EC50 in experiment [1] turned out to be 3.27 nM. Besides, on human DGKα, the IC50 is 97.3 nM.

Regarding `O=c1nc(N(CC(F)F)c2ccnc(C#CC3(C(F)(F)F)CC3)c2)c2c(F)c(F)ccc2[nH]1` [Example 78], the EC50 in experiment [1] worked out at 2.55 nM. In the case of `O=c1nc(N2CCOCc3c(C#CC4(C(F)(F)F)CC4)cccc32)c2c(F)cccc2[nH]1` [Example 90], the EC50 in experiment [1] was determined as 0.442 nM. Still for that read-out and setting: the result for `[2H]C([2H])([2H])n1c(=O)nc(N2CCOCc3c(C#CC4(C(F)(F)F)CC4)cccc32)c2c(F)c(F)ccc21` [Example 96] reads 0.559 nM. Take `O=c1nc(N2CCCCc3c(C#CC4(C(F)(F)F)CC4)cncc32)c2c(F)cccc2[nH]1` [Example 153]: in experiment [1], the EC50 is 1.62 nM. On to `CC1(C#Cc2cccc3c2COCCN3c2nc(=O)[nH]c3cccc(F)c23)CC1` [Example 154], for which, in experiment [1], the 50% effective concentration (EC50) turned out to be 0.783 nM.
